From patent US9969694B2, “N-(arylalkyl)-N′-pyrazolyl-urea, thiourea, guanidine and cyanoguanidine compounds as TrkA kinase inhibitors” (Array BioPharma Inc., priority 2012, dated 2018)

Tests used:
Assay in all cases: Off-Target Kinase Profiling
Format in all cases: biochemical
Conditions in all cases: 10 μM; ATP near Km
WNK2 = biological target: T1, WNK2 (Homo sapiens, UniProt Q9Y3S1)
T1 construct: purchased Millipore, Inc. (KinaseProfiler service)
Method in brief: (§1)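 Kinase activity remaining in the presence of 10 μM compound, as percent of control; mean of two runs. ATP near Km for each kinase.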

WNK3 = biological target: T2, WNK3 (Homo sapiens, UniProt Q9BYP7)
T2 construct: purchased Millipore, Inc. (KinaseProfiler service)
Method in brief: as §1

p38delta = biological target: T3, p38delta (Homo sapiens, UniProt O15264)
T3 construct: purchased Millipore, Inc. (KinaseProfiler service)
Method in brief: as §1

IRR = biological target: T4, IRR (Homo sapiens, UniProt P14616)
T4 construct: purchased Millipore, Inc. (KinaseProfiler service)
Method in brief: as §1

Txk = biological target: T5, Txk (Homo sapiens, UniProt P42681)
T5 construct: purchased Millipore, Inc. (KinaseProfiler service)
Method in brief: as §1

DAPK2 = biological target: T6, DAPK2 (Homo sapiens, UniProt Q9UIK4)
T6 construct: purchased Millipore, Inc. (KinaseProfiler service)
Method in brief: as §1

TAO2 = biological target: T7, TAO2 (Homo sapiens, UniProt Q9UL54)
T7 construct: purchased Millipore, Inc. (KinaseProfiler service)
Method in brief: as §1

EphA3 = biological target: T8, EphA3 (Homo sapiens, UniProt P29320)
T8 construct: purchased Millipore, Inc. (KinaseProfiler service)
Method in brief: as §1

DMPK = biological target: T9, DMPK (Homo sapiens, UniProt Q09013)
T9 construct: purchased Millipore, Inc. (KinaseProfiler service)
Method in brief: as §1

CDK6/cyclinD3 = biological target: T10, CDK6/cyclinD3 (Homo sapiens, UniProt Q00534)
T10 construct: purchased Millipore, Inc. (KinaseProfiler service)
Method in brief: as §1

EphA8 = biological target: T11, EphA8 (Homo sapiens, UniProt P29322)
T11 construct: purchased Millipore, Inc. (KinaseProfiler service)
Method in brief: as §1

MAPKAP-K5 = biological target: T12, MAPKAP-K5 (Homo sapiens, UniProt Q8IW41)
T12 construct: purchased Millipore, Inc. (KinaseProfiler service)
Method in brief: as §1

Fms = biological target: T13, Fms (Homo sapiens, UniProt P07333)
T13 construct: purchased Millipore, Inc. (KinaseProfiler service)
Method in brief: as §1

ALK4 = biological target: T14, ALK4 (Homo sapiens, UniProt P36896)
T14 construct: purchased Millipore (KinaseProfiler service)
Method in brief: as §1

MAP3K5 = biological target: T15, MAP3K5 (Homo sapiens, UniProt Q99683)
T15 construct: purchased Millipore, Inc. (KinaseProfiler service)
Method in brief: as §1

MKK6 = biological target: T16, MKK6 (Homo sapiens, UniProt P52564)
T16 construct: purchased Millipore, Inc. (KinaseProfiler service)
Method in brief: as §1

ITK = biological target: T17, ITK (Homo sapiens, UniProt Q08881)
T17 construct: purchased Millipore, Inc. (KinaseProfiler service)
Method in brief: as §1

PKD1 = biological target: T18, PKD1 (Homo sapiens, UniProt Q15139)
T18 construct: purchased Millipore, Inc. (KinaseProfiler service)
Method in brief: as §1

MARK2 = biological target: T19, MARK2 (Homo sapiens, UniProt Q7KZI7)
T19 construct: purchased Millipore, Inc. (KinaseProfiler service)
Method in brief: as §1

CLK2 = biological target: T20, CLK2 (Homo sapiens, UniProt P49760)
T20 construct: purchased Millipore, Inc. (KinaseProfiler service)
Method in brief: as §1

Flt1 = biological target: T21, Flt1 (Homo sapiens, UniProt P17948)
T21 construct: purchased Millipore, Inc. (KinaseProfiler service)
Method in brief: as §1

MINK = biological target: T22, MINK (Homo sapiens, UniProt Q8N4C8)
T22 construct: purchased Millipore, Inc. (KinaseProfiler service)
Method in brief: as §1

GRK5 = biological target: T23, GRK5 (Homo sapiens, UniProt P34947)
T23 construct: purchased Millipore, Inc. (KinaseProfiler service)
Method in brief: as §1

ROCK-II = biological target: T24, ROCK-II (Homo sapiens, UniProt O75116)
T24 construct: purchased Millipore, Inc. (KinaseProfiler service)
Method in brief: as §1

Fyn = biological target: T25, Fyn (Homo sapiens, UniProt P06241)
T25 construct: purchased Millipore, Inc. (KinaseProfiler service)
Method in brief: as §1

Ron = biological target: T26, Ron (Homo sapiens, UniProt Q04912)
T26 construct: purchased Millipore, Inc. (KinaseProfiler service)
Method in brief: as §1

CHK1 = biological target: T27, CHK1 (Homo sapiens, UniProt O14757)
T27 construct: purchased Millipore, Inc. (KinaseProfiler service)
Method in brief: as §1

ALK = biological target: T28, ALK (Homo sapiens, UniProt Q9UM73)
T28 construct: purchased Millipore (KinaseProfiler service)
Method in brief: as §1

PTK6 = biological target: T29, PTK6 (Homo sapiens, UniProt Q13882)
T29 construct: purchased Millipore, Inc. (KinaseProfiler service)
Method in brief: as §1

Syk = biological target: T30, Syk (Homo sapiens, UniProt P43405)
T30 construct: purchased Millipore, Inc. (KinaseProfiler service)
Method in brief: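 Profiling uses one compound concentration (10 μM) and ATP adjusted to approximately each kinase's Km. Duplicate measurements are averaged and expressed as percent of the uninhibited control.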

BTK = biological target: T31, BTK (Homo sapiens, UniProt Q06187)
T31 construct: purchased Millipore (KinaseProfiler service)
Method in brief: as §1

CDK3/cyclinE = biological target: T32, CDK3/cyclinE (Homo sapiens, UniProt Q00526)
T32 construct: purchased Millipore, Inc. (KinaseProfiler service)
Method in brief: as §1

FAK = biological target: T33, FAK (Homo sapiens, UniProt Q05397)
T33 construct: purchased Millipore, Inc. (KinaseProfiler service)
Method in brief: as §1

VRK2 = biological target: T34, VRK2 (Homo sapiens, UniProt Q86Y07)
T34 construct: purchased Millipore, Inc. (KinaseProfiler service)
Method in brief: as §1

CAMK1d = biological target: T35, CAMK1d (Homo sapiens, UniProt Q8IU85)
T35 construct: purchased Millipore (KinaseProfiler service)
Method in brief: as §1

PASK = biological target: T36, PASK (Homo sapiens, UniProt Q96RG2)
T36 construct: purchased Millipore, Inc. (KinaseProfiler service)
Method in brief: as §1

MRCKbeta = biological target: T37, MRCKbeta (Homo sapiens, UniProt Q9Y5S2)
T37 construct: purchased Millipore, Inc. (KinaseProfiler service)
Method in brief: as §1

SIK = biological target: T38, SIK (Homo sapiens, UniProt P57059)
T38 construct: purchased Millipore, Inc. (KinaseProfiler service)
Method in brief: as §1

SGK2 = biological target: T39, SGK2 (Homo sapiens, UniProt Q9HBY8)
T39 construct: purchased Millipore, Inc. (KinaseProfiler service)
Method in brief: as §1

Plk3 = biological target: T40, Plk3 (Homo sapiens, UniProt Q9H4B4)
T40 construct: purchased Millipore, Inc. (KinaseProfiler service)
Method in brief: as §1

Haspin = biological target: T41, Haspin (Homo sapiens, UniProt Q8TF76)
T41 construct: purchased Millipore, Inc. (KinaseProfiler service)
Method in brief: as §1

T2 sequence (Q9BYP7 whole entry): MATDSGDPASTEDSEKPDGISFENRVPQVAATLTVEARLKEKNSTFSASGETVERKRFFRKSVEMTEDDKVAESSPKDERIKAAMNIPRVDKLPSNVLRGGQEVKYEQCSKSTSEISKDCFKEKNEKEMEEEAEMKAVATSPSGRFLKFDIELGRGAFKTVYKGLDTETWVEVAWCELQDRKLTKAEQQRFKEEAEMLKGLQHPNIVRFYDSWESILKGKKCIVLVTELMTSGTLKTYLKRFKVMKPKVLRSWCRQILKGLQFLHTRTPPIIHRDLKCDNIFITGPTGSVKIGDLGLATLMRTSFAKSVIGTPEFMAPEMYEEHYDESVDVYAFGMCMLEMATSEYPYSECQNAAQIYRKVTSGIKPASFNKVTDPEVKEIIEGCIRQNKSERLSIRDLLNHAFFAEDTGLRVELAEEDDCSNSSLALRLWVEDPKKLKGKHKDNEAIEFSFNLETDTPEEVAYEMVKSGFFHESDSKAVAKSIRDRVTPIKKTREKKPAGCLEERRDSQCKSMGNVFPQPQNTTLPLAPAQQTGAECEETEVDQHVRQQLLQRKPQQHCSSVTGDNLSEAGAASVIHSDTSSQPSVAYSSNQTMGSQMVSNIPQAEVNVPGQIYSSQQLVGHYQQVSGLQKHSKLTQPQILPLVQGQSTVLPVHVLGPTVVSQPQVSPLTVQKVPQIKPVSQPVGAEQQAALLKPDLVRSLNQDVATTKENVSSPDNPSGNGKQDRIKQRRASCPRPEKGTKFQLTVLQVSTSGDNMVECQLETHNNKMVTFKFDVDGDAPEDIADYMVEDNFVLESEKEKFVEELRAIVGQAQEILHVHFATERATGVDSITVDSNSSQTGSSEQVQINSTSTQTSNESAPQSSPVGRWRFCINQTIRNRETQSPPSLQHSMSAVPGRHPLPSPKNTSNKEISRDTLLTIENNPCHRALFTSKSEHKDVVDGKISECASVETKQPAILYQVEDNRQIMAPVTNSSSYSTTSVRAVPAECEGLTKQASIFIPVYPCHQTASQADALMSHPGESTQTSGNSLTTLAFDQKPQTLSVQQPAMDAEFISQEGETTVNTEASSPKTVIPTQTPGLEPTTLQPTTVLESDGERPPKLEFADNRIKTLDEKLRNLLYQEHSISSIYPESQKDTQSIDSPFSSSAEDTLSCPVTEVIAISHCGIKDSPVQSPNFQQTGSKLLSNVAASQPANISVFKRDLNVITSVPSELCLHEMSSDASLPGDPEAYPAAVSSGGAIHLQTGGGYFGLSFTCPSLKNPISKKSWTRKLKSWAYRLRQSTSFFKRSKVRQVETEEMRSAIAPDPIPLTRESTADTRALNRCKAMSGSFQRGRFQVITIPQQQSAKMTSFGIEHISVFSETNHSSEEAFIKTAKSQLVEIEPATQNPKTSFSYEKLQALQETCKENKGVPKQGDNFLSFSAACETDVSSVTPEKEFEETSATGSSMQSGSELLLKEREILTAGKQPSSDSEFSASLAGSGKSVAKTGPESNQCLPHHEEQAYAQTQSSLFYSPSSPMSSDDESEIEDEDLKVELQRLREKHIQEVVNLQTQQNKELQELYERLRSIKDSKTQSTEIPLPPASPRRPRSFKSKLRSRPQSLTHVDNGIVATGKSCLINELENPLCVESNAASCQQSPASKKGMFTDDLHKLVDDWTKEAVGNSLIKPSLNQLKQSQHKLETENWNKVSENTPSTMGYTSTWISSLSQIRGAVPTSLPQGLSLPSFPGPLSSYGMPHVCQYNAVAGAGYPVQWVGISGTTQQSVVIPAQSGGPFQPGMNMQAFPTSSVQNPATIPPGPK
T7 sequence (Q9UL54 whole entry): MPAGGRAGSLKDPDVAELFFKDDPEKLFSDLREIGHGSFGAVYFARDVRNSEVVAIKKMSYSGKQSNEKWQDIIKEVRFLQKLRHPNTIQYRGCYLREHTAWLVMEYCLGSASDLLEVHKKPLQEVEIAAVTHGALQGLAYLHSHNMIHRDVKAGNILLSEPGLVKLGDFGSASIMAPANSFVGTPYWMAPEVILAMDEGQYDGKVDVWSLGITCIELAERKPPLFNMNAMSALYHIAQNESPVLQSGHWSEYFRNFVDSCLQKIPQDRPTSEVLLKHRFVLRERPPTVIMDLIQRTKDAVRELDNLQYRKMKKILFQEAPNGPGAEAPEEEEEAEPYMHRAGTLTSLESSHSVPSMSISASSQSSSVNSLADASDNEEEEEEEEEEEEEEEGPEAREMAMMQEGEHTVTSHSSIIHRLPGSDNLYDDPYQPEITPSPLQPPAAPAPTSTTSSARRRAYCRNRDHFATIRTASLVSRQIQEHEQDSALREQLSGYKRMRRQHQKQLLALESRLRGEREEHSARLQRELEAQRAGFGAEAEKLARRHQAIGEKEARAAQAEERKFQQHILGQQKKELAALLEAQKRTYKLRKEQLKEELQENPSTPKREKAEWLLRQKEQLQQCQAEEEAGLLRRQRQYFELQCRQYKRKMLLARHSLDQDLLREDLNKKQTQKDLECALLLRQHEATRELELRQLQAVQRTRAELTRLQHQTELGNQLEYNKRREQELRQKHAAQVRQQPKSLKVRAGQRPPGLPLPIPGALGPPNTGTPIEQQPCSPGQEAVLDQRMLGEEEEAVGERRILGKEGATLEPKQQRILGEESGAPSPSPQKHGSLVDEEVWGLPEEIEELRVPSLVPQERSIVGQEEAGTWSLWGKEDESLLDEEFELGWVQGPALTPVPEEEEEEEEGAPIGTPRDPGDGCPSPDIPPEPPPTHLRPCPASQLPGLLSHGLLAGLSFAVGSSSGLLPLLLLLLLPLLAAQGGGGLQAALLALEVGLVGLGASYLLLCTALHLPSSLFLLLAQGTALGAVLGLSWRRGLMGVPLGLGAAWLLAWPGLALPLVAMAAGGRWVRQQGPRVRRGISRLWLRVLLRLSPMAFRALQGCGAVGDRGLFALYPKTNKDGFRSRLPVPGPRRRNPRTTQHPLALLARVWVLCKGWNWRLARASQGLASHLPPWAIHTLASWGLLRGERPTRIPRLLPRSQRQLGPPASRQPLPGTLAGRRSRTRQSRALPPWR
T24 sequence (O75116 whole entry): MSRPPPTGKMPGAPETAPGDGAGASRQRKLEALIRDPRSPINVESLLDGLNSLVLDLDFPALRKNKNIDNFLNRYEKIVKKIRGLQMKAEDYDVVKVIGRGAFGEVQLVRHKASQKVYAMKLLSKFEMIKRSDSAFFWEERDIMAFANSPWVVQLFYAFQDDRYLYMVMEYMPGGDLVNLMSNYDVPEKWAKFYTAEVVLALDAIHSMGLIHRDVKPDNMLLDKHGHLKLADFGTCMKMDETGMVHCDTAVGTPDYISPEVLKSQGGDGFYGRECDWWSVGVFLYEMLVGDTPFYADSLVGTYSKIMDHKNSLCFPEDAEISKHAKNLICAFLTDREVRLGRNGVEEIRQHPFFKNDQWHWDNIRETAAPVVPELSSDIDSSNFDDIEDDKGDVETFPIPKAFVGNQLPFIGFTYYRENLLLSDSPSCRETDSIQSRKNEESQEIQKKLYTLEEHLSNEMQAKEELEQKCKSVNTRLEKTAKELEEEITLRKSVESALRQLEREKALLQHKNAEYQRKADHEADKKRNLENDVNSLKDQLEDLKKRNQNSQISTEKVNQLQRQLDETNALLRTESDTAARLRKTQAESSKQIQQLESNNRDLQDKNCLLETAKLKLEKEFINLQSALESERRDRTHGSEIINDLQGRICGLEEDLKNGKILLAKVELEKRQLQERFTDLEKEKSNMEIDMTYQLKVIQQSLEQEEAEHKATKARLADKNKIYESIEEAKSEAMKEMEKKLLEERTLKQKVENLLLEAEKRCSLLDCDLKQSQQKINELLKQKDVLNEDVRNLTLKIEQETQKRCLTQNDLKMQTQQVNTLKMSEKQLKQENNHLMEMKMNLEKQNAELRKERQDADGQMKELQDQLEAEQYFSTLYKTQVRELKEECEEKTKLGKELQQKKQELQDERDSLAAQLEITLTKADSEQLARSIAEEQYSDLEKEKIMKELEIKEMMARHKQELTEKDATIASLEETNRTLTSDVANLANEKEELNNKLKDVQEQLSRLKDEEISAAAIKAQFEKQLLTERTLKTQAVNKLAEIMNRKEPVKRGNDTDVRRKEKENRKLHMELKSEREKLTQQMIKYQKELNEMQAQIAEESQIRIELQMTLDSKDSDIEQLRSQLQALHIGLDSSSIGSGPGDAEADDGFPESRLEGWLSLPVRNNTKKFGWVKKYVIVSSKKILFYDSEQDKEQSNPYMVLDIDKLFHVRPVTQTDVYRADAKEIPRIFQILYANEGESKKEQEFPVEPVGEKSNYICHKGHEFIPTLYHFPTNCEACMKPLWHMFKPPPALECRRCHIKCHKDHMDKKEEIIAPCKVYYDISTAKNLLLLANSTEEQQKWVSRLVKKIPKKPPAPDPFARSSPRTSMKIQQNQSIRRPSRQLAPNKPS
T25 sequence (P06241 whole entry): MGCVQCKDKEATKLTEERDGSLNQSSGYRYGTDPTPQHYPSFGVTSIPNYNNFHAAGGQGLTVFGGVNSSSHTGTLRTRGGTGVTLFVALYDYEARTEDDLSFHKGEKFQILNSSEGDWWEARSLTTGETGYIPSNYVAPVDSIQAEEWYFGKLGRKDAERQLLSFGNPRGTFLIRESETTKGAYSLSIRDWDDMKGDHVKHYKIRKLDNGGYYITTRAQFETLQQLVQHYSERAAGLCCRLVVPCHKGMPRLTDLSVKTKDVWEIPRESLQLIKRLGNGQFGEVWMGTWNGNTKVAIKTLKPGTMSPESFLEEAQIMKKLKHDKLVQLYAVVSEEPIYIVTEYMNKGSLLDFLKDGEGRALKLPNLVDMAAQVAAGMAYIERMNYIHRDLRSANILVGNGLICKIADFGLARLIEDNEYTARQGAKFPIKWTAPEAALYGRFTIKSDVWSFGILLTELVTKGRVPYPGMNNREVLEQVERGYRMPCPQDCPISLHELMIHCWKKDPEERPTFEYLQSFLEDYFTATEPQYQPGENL

SMILES: COCc1ccc(C(F)(F)F)c(CNC(=O)Nc2c(C)c(-c3cnn(C)c3)nn2-c2ccccc2)c1 [Example 33, 1-(1′,4-dimethyl-1-phenyl-1H,1′H-[3,4′-bipyrazol]-5-yl)-3-(5-(methoxymethyl)-2-(trifluoromethyl)benzyl)urea]
- Avg POC WNK2 (WNK2): 140.5 POC
- Avg POC WNK3 (WNK3): 111 POC
- Avg POC p38delta (p38delta): 85 POC
- Avg POC IRR (IRR): 96.5 POC
- Avg POC Txk (Txk): 156.5 POC
- Avg POC DAPK2 (DAPK2): 109.5 POC
- Avg POC TAO2 (TAO2): 92.5 POC
- Avg POC EphA3 (EphA3): 116.5 POC
- Avg POC DMPK (DMPK): 104 POC
- Avg POC CDK6/cyclinD3 (CDK6/cyclinD3): 108 POC
- Avg POC EphA8 (EphA8): 123 POC
- Avg POC MAPKAP-K5 (MAPKAP-K5): 97.5 POC
- Avg POC Fms (Fms): 88.5 POC
- Avg POC ALK4 (ALK4): 106 POC
- Avg POC MAP3K5 (MAP3K5): 100 POC
- Avg POC MKK6 (MKK6): 143 POC
- Avg POC ITK (ITK): 124 POC
- Avg POC PKD1 (PKD1): 94 POC
- Avg POC MARK2 (MARK2): 103.5 POC
- Avg POC CLK2 (CLK2): 131.5 POC
- Avg POC Flt1 (Flt1): 91 POC
- Avg POC MINK (MINK): 100 POC
- Avg POC GRK5 (GRK5): 82 POC
- Avg POC ROCK-II (ROCK-II): 107.5 POC
- Avg POC Fyn (Fyn): 113 POC
- Avg POC Ron (Ron): 95.5 POC
- Avg POC CHK1 (CHK1): 97 POC
- Avg POC ALK (ALK): 116 POC
- Avg POC PTK6 (PTK6): 118.5 POC
- Avg POC Syk (Syk): 123.5 POC
- Avg POC BTK (BTK): 125 POC
- Avg POC CDK3/cyclinE (CDK3/cyclinE): 98.5 POC
- Avg POC FAK (FAK): 99 POC
- Avg POC VRK2 (VRK2): 90.5 POC
- Avg POC CAMK1d (CAMK1d): 111.5 POC
- Avg POC PASK (PASK): 205 POC
- Avg POC MRCKbeta (MRCKbeta): 116.5 POC
- Avg POC SIK (SIK): 139 POC
- Avg POC SGK2 (SGK2): 208 POC
- Avg POC Plk3 (Plk3): 109.5 POC
- Avg POC Haspin (Haspin): 109 POC

SMILES: COCc1ccc(C2CCC2)c(CNC(=O)Nc2c(C)c(-c3cnc(C)nc3)nn2-c2ccccc2)c1 [Example 10, 1-(2-cyclobutyl-5-(methoxymethyl)benzyl)-3-(4-methyl-3-(2-methylpyrimidin-5-yl)-1-phenyl-1H-pyrazol-5-yl)urea]
- Avg POC WNK2 (WNK2): 109 POC
- Avg POC WNK3 (WNK3): 101.5 POC
- Avg POC p38delta (p38delta): 81 POC
- Avg POC IRR (IRR): 96 POC
- Avg POC Txk (Txk): 104.5 POC
- Avg POC DAPK2 (DAPK2): 105 POC
- Avg POC TAO2 (TAO2): 97.5 POC
- Avg POC EphA3 (EphA3): 119 POC
- Avg POC DMPK (DMPK): 101.5 POC
- Avg POC CDK6/cyclinD3 (CDK6/cyclinD3): 102 POC
- Avg POC EphA8 (EphA8): 97.5 POC
- Avg POC MAPKAP-K5 (MAPKAP-K5): 92 POC
- Avg POC Fms (Fms): 83.5 POC
- Avg POC ALK4 (ALK4): 111.5 POC
- Avg POC MAP3K5 (MAP3K5): 99 POC
- Avg POC MKK6 (MKK6): 131.5 POC
- Avg POC ITK (ITK): 112 POC
- Avg POC PKD1 (PKD1): 94.5 POC
- Avg POC MARK2 (MARK2): 98.5 POC
- Avg POC CLK2 (CLK2): 97.5 POC
- Avg POC Flt1 (Flt1): 88 POC
- Avg POC MINK (MINK): 139.5 POC
- Avg POC GRK5 (GRK5): 81.5 POC
- Avg POC ROCK-II (ROCK-II): 98 POC
- Avg POC Fyn (Fyn): 103 POC
- Avg POC Ron (Ron): 100.5 POC
- Avg POC CHK1 (CHK1): 102.5 POC
- Avg POC ALK (ALK): 102.5 POC
- Avg POC PTK6 (PTK6): 106.5 POC
- Avg POC Syk (Syk): 79.5 POC
- Avg POC BTK (BTK): 117.5 POC
- Avg POC CDK3/cyclinE (CDK3/cyclinE): 90.5 POC
- Avg POC FAK (FAK): 96.5 POC
- Avg POC VRK2 (VRK2): 90 POC
- Avg POC CAMK1d (CAMK1d): 81 POC
- Avg POC PASK (PASK): 70 POC
- Avg POC MRCKbeta (MRCKbeta): 108.5 POC
- Avg POC SIK (SIK): 104 POC
- Avg POC SGK2 (SGK2): 80.5 POC
- Avg POC Plk3 (Plk3): 111 POC
- Avg POC Haspin (Haspin): 80.5 POC
